{"source": "patent US9433622B2", "about": "“Pyrimidine compounds useful in the treatment of diseases mediated by IKKE and/or TBK1 mechanisms” (DOMAINEX LIMITED, priority 2013, dated 2016)", "key": {"IKKε": {"biological_target": "IKKε (Homo sapiens (Human), UniProt Q14164)", "sequence (Q14164 whole entry)": "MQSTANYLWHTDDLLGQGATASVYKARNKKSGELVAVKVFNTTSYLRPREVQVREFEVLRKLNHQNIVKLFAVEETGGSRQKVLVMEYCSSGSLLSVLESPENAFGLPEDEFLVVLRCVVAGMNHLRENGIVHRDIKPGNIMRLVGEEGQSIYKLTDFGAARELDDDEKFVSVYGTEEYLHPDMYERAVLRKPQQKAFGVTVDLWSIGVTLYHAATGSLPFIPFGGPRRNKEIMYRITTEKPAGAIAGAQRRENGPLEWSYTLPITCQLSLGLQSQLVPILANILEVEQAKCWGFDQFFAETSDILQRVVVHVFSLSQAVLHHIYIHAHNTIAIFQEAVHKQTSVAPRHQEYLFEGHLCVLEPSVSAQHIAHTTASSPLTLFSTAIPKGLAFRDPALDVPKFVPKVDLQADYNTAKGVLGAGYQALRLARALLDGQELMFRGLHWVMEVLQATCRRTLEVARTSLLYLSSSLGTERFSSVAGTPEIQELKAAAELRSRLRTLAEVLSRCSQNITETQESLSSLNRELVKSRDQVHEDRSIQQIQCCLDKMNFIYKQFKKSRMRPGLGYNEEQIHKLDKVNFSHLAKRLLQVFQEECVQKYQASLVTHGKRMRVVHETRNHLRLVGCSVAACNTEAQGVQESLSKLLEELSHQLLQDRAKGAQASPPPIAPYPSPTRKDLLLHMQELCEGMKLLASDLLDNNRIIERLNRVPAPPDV", "experiment": "Lanthascreen TR-FRET kinase inhibition assay, IKKε", "assay_type": "biochemical", "experimental": "(§1) Compounds of the invention (synthesised as described below) were tested for activity against the IKKε and TBK-1 enzyme as follows:\n(§2) Inhibitions studies were performed using a time-resolved fluorescence-based Lanthascreen™ assay. Phosphorylation of a fluorescein-labelled substrate peptide is measured using terbium-labeled phosphospecific antibodies.\n(§3) Kinase inhibition assays (10 μL) were performed at 20° C. in 384-well plate format. […] The final reaction conditions contained 400 nM fluorescein-IkBα substrate ([…]), 20 μM ATP, 2 nM or 8 nM IKKε or TBK1 kinase respectively, and 3% DMSO in kinase assay buffer consisting of 50 mM HEPES (pH 7.5), 10 mM MgCl, 1 mM EGTA, 0.01% Brij-35.\n(§4) Compound dilutions were prepared from 10 mM DMSO stocks by dilution into DMSO.\n(§5) The kinase phosphorylation assay was initiated by the addition of the kinase and the reaction was allowed to proceed for 1 h or 2.5 h for IKKε and TBK-1 kinase respectively."}, "TBK1": {"biological_target": "TBK1 (Homo sapiens (Human), UniProt Q9UHD2)", "sequence (Q9UHD2 whole entry)": "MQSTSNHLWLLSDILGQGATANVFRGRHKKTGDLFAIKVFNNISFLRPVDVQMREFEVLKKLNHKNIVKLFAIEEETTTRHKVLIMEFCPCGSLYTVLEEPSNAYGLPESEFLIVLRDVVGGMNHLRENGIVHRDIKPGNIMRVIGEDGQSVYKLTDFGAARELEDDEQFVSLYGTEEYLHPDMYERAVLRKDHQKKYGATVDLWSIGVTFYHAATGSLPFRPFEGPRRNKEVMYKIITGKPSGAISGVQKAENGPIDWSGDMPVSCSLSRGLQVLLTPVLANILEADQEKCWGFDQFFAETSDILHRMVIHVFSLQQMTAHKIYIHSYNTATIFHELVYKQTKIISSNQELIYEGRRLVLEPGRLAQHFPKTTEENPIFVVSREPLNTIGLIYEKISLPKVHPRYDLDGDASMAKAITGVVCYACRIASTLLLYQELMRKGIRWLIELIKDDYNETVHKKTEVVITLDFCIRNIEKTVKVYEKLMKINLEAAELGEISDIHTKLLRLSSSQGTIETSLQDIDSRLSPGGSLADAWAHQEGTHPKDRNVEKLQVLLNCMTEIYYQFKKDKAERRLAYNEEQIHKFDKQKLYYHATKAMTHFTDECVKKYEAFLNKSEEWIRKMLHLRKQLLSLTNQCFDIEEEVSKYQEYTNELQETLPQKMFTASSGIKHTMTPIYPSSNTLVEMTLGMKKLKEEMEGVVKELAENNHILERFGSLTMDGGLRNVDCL", "experiment": "Lanthascreen TR-FRET kinase inhibition assay, TBK1", "assay_type": "biochemical", "experimental": "as §1, §2, §3, §4, §5"}, "[1]": {"settings": "20 μM ATP (apparent Km), 2 nM kinase, 1 h"}, "[2]": {"settings": "20 μM ATP (apparent Km), 8 nM kinase, 2.5 h"}}, "note": "Read-outs that look alike come from different tables or passages of the source."}
{"smiles": "CN1CCC(Nc2ccc(Nc3nccc(-c4cnc(N5CCC(F)(F)C5)c(C#N)c4)n3)cn2)CC1", "note": "[DMX-15, 2-(3,3-Difluoro-pyrrolidin-1-yl)-5-{2-[6-(1-methyl-piperidin-4-ylamino)-pyridin-3-ylamino]-pyrimidin-4-yl}-nicotinonitrile]", "values": [{"measurement": "IC50", "setting": "IKKε; [1]", "value": "< 100", "unit": "nM"}, {"measurement": "IC50", "setting": "TBK1; [2]", "value": "< 30", "unit": "nM"}]}
{"smiles": "N#Cc1cc(-c2ccnc(Nc3ccc(CN4CCOCC4)nc3)n2)cnc1N1CC[C@H](F)C1", "note": "[DMX-68, 2-((S)-3-Fluoro-pyrrolidin-1-yl)-5-[2-(6-morpholin-4-ylmethyl-pyridin-3-ylamino)-pyrimidin-4-yl]-nicotinonitrile]", "values": [{"measurement": "IC50", "setting": "IKKε; [1]", "value": "< 15", "unit": "nM"}, {"measurement": "IC50", "setting": "TBK1; [2]", "value": "< 15", "unit": "nM"}]}
{"smiles": "N#Cc1cc(-c2ccnc(Nc3ccc(NC(=O)[C@@H]4CCCN4)nc3)n2)cnc1N1CC[C@H](F)C1", "note": "[DMX-65, (S)-Pyrrolidine-2-carboxylic acid (5-{4-[5-cyano-6-((S)-3-fluoro-pyrrolidin-1-yl)-pyridin-3-yl]-pyrimidin-2-ylamino}-pyridin-2-yl)-amide]", "values": [{"measurement": "IC50", "setting": "IKKε; [1]", "value": "< 30", "unit": "nM"}, {"measurement": "IC50", "setting": "TBK1; [2]", "value": "< 100", "unit": "nM"}]}
{"smiles": "N#Cc1cc(-c2ccnc(Nc3ccc(NC(=O)CN4CCC(O)CC4)nc3)n2)cnc1N1CC[C@H](F)C1", "note": "[DMX-29, N-(5-{4-[5-Cyano-6-((S)-3-fluoro-pyrrolidin-1-yl)-pyridin-3-yl]-pyrimidin-2-ylamino}-pyridin-2-yl)-2-(4-hydroxy-piperidin-1-yl)-acetamide]", "values": [{"measurement": "IC50", "setting": "IKKε; [1]", "value": "< 30", "unit": "nM"}, {"measurement": "IC50", "setting": "TBK1; [2]", "value": "< 30", "unit": "nM"}]}
{"smiles": "N#Cc1cc(-c2nc(Nc3ccc(CN4CCOCC4)nc3)ncc2F)cnc1NC1CC1", "note": "[DMX-123, 2-Cyclopropylamino-5-[5-fluoro-2-(6-morpholin-4-ylmethyl-pyridin-3-ylamino)-pyrimidin-4-yl]-nicotinonitrile]", "values": [{"measurement": "IC50", "setting": "IKKε; [1]", "value": "< 1000", "unit": "nM"}, {"measurement": "IC50", "setting": "TBK1; [2]", "value": "< 100", "unit": "nM"}]}
{"smiles": "COCCN(C)c1ncc(-c2ccnc(Nc3ccc(CN4CCOCC4)nc3)n2)cc1C#N", "note": "[DMX-140, 2-[(2-Methoxy-ethyl]-methyl-amino]-5-[2-(6-morpholin-4-ylmethyl-pyridin-3-ylamino)-pyrimidin-4-yl]-nicotinonitrile]", "values": [{"measurement": "IC50", "setting": "IKKε; [1]", "value": "< 1000", "unit": "nM"}, {"measurement": "IC50", "setting": "TBK1; [2]", "value": "< 1000", "unit": "nM"}]}
{"smiles": "N#Cc1cc(-c2ccnc(Nc3ccnc(NC(=O)CN4CCOCC4)c3)n2)cnc1N1CCC2(COC2)C1", "note": "[DMX-93, N-(4-{4-[5-Cyano-6-(2-oxa-6-aza-spiro[3.4]oct-6-yl)-pyridin-3-yl]-pyrimidin-2-ylamino}-pyridin-2-yl)-2-morpholin-4-yl-acetamide]", "values": [{"measurement": "IC50", "setting": "IKKε; [1]", "value": "< 100", "unit": "nM"}, {"measurement": "IC50", "setting": "TBK1; [2]", "value": "< 100", "unit": "nM"}]}
{"smiles": "N#Cc1cc(-c2ccnc(Nc3cnn(CCCO)c3)n2)cnc1N1CC[C@H](F)C1", "note": "[DMX-52, 2-((S)-3-Fluoro-pyrrolidin-1-yl)-5-{2-[1-(3-hydroxy-propyl)-1H-pyrazol-4-ylamino]-pyrimidin-4-yl}-nicotinonitrile]", "values": [{"measurement": "IC50", "setting": "IKKε; [1]", "value": "< 100", "unit": "nM"}, {"measurement": "IC50", "setting": "TBK1; [2]", "value": "< 30", "unit": "nM"}]}
{"smiles": "CN1CCN(c2ccc(Nc3nccc(-c4cnc(N5CC[C@H](F)C5)c(C#N)c4)n3)cn2)CC1", "note": "[DMX-24, 2-((S)-3-Fluoro-pyrrolidin-1-yl)-5-{2-[6-(4-methyl-piperazin-1-yl)-pyridin-3-ylamino]-pyrimidin-4-yl}-nicotinonitrile]", "values": [{"measurement": "IC50", "setting": "IKKε; [1]", "value": "< 15", "unit": "nM"}, {"measurement": "IC50", "setting": "TBK1; [2]", "value": "< 15", "unit": "nM"}]}
{"smiles": "C[C@H]1COCCN1Cc1cc(Nc2nccc(-c3cnc(N4CC[C@H](F)C4)c(C#N)c3)n2)ccn1", "note": "[DMX-78, 2-((S)-3-Fluoro-pyrrolidin-1-yl)-5-{2-[2-((S)-3-methyl-morpholin-4-ylmethyl)-pyridin-4-ylamino]-pyrimidin-4-yl}-nicotinonitrile]", "values": [{"measurement": "IC50", "setting": "IKKε; [1]", "value": "< 30", "unit": "nM"}, {"measurement": "IC50", "setting": "TBK1; [2]", "value": "< 15", "unit": "nM"}]}
{"smiles": "N#Cc1nc(-c2ccnc(Nc3ccc(NC(=O)CN4CCOCC4)nc3)n2)ccc1N1CC[C@H](O)C1", "note": "[DMX-141, N-(5-{4-[6-Cyano-5-((S)-3-hydroxy-pyrrolidin-1-yl)-pyridin-2-yl]-pyrimidin-2-ylamino}-pyridin-2-yl)-2-morpholin-4-yl-acetamide]", "values": [{"measurement": "IC50", "setting": "IKKε; [1]", "value": "< 100", "unit": "nM"}, {"measurement": "IC50", "setting": "TBK1; [2]", "value": "< 100", "unit": "nM"}]}
{"smiles": "CN1CCC(Nc2ccc(Nc3nccc(-c4cnc(N5CC[C@H](O)C5)c(C#N)c4)n3)cn2)CC1", "note": "[DMX-13, 2-((S)-3-Hydroxy-pyrrolidin-1-yl)-5-{2-[6-(1-methyl-piperidin-4-ylamino)-pyridin-3-ylamino]-pyrimidin-4-yl}-nicotinonitrile]", "values": [{"measurement": "IC50", "setting": "IKKε; [1]", "value": "< 100", "unit": "nM"}, {"measurement": "IC50", "setting": "TBK1; [2]", "value": "< 100", "unit": "nM"}]}
{"smiles": "Cn1cc(Nc2nccc(-c3cnc(N4C5CCC4CC(O)C5)c(C#N)c3)n2)cn1", "note": "(centres unmarked) [DMX-44, 2-(3-Hydroxy-8-aza-bicyclo[3.2.1]oct-8-yl)-5-[2-(1-methyl-1H-pyrazol-4-ylamino)-pyrimidin-4-yl]-nicotinonitrile]", "values": [{"measurement": "IC50", "setting": "IKKε", "value": "< 30", "unit": "nM"}, {"measurement": "IC50", "setting": "TBK1", "value": "< 15", "unit": "nM"}]}
{"smiles": "N#Cc1nc(-c2ccnc(Nc3ccc(CN4CCOCC4)nc3)n2)ccc1N1CCCOCC1", "note": "[DMX-164, 6-[2-(6-Morpholin-4-ylmethyl-pyridin-3-ylamino)-pyrimidin-4-yl]-3-[1,4]oxazepan-4-yl-pyridine-2-carbonitrile]", "values": [{"measurement": "IC50", "setting": "IKKε; [1]", "value": "< 30", "unit": "nM"}, {"measurement": "IC50", "setting": "TBK1; [2]", "value": "< 100", "unit": "nM"}]}
{"smiles": "N#Cc1cc(-c2ccnc(Nc3ccc(CN4CCOCC4)nc3)n2)cnc1N1CCCOCC1", "note": "[DMX-84, 5-[2-(6-Morpholin-4-ylmethyl-pyridin-3-ylamino)-pyrimidin-4-yl]-2-[1,4]oxazepan-4-yl-nicotinonitrile]", "values": [{"measurement": "IC50", "setting": "IKKε; [1]", "value": "< 100", "unit": "nM"}, {"measurement": "IC50", "setting": "TBK1; [2]", "value": "< 100", "unit": "nM"}]}
{"smiles": "C[C@@H]1CN(c2ccc(Nc3nccc(-c4cnc(N5CC[C@H](O)C5)c(C#N)c4)n3)cn2)CCN1", "note": "[DMX-26, 2-((S)-3-Hydroxy-pyrrolidin-1-yl)-5-{2-[6-((R)-3-methyl-piperazin-1-yl)-pyridin-3-ylamino]-pyrimidin-4-yl}-nicotinonitrile]", "values": [{"measurement": "IC50", "setting": "IKKε; [1]", "value": "< 100", "unit": "nM"}, {"measurement": "IC50", "setting": "TBK1; [2]", "value": "< 30", "unit": "nM"}]}
{"smiles": "N#Cc1cc(-c2ccnc(Nc3ccc(CN4CCCOCC4)nc3)n2)cnc1N1CC[C@H](F)C1", "note": "[DMX-103, 2-((S)-3-Fluoro-pyrrolidin-1-yl)-5-[2-(6-[1,4]oxazepan-4-ylmethyl-pyridin-3-ylamino)-pyrimidin-4-yl]-nicotinonitrile]", "values": [{"measurement": "IC50", "setting": "IKKε; [1]", "value": "< 100", "unit": "nM"}, {"measurement": "IC50", "setting": "TBK1; [2]", "value": "< 100", "unit": "nM"}]}
{"smiles": "N#Cc1cc(-c2ccnc(Nc3cccc(C(=O)NC4CCNCC4)c3)n2)cnc1N[C@@H]1CCOC1", "note": "[DMX-117, 3-(4-{5-Cyano-6-[(R)-(tetrahydro-furan-3-yl)amino]-pyridin-3-yl}-pyrimidin-2-ylamino)-N-piperidin-4-yl-benzamide]", "values": [{"measurement": "IC50", "setting": "IKKε; [1]", "value": "< 1000", "unit": "nM"}, {"measurement": "IC50", "setting": "TBK1; [2]", "value": "< 1000", "unit": "nM"}]}
{"smiles": "CN1CCC(NC(=O)c2cccc(Nc3nccc(-c4cnc(N5CC[C@H](F)C5)c(C#N)c4)n3)c2)CC1", "note": "[DMX-1, 3-{4-[5-Cyano-6-((S)-3-fluoro-pyrrolidin-1-yl)-pyridin-3-yl]-pyrimidin-2-ylamino}-N-(1-methyl-piperidin-4-yl)-benzamide]", "values": [{"measurement": "IC50", "setting": "IKKε; [1]", "value": "< 100", "unit": "nM"}, {"measurement": "IC50", "setting": "TBK1; [2]", "value": "< 30", "unit": "nM"}]}
{"smiles": "CS(=O)(=O)CCNCc1ccc(Nc2nccc(-c3cnc(N4CC[C@H](F)C4)c(C#N)c3)n2)cn1", "note": "[DMX-98, 2-((S)-3-Fluoro-pyrrolidin-1-yl)-5-(2-{6-[(2-methanesulfonyl-ethylamino)-methyl]-pyridin-3-ylamino}-pyrimidin-4-yl)-nicotinonitrile]", "values": [{"measurement": "IC50", "setting": "IKKε; [1]", "value": "< 30", "unit": "nM"}, {"measurement": "IC50", "setting": "TBK1; [2]", "value": "< 30", "unit": "nM"}]}
{"smiles": "Cn1cc(Nc2nccc(-c3cnc(N4CCC[C@@H]4C(=O)O)c(C#N)c3)n2)cn1", "note": "[DMX-40, (R)-1-{3-Cyano-5-[2-(1-methyl-1H-pyrazol-4-ylamino)-pyrimidin-4-yl]-pyridin-2-yl}-pyrrolidine-2-carboxylic acid]", "values": [{"measurement": "IC50", "setting": "IKKε; [1]", "value": "< 9000", "unit": "nM"}, {"measurement": "IC50", "setting": "TBK1; [2]", "value": "< 1000", "unit": "nM"}]}
{"smiles": "N#Cc1cc(-c2ccnc(Nc3ccc(CN4CCOCC4)nc3)n2)cnc1NC1CC1", "note": "[DMX-122, 2-Cyclopropylamino-5-[2-(6-morpholin-4-ylmethyl-pyridin-3-ylamino)-pyrimidin-4-yl]-nicotinonitrile]", "values": [{"measurement": "IC50", "setting": "IKKε; [1]", "value": "< 1000", "unit": "nM"}, {"measurement": "IC50", "setting": "TBK1; [2]", "value": "< 100", "unit": "nM"}]}
